Experimental data: paper PMC6009982, “Diaryl ethers with carboxymethoxyphenacyl motif as potent HIV-1 reverse transcriptase inhibitors with improved solubility” (Journal of Enzyme Inhibition and Medicinal Chemistry, 2017)
Converted amounts (≈) assume the structure as drawn. Like-named read-outs stand apart in the source and are kept apart here. Marks after values point to notes of the source that are not given here.

Columns and labels:
[1] = molecular target: T1, HIV-1 RT (Human immunodeficiency virus type 1 group M subtype B, UniProt P04585); assay: HIV RT inhibitory activity, colorimetric Reverse Transcriptase Assay kit (Roche); assay type: biochemical
T1 construct: Because HIV-1 reverse transcriptase (RT) has a low fidelity; purchased Roche, Basel, Switzerland
Method: HIV RT inhibitory activity of the new compounds was measured using the colorimetric Reverse Transcriptase Assay kit (Roche, Basel, Switzerland). […] Averaged results from at least two measurements were used to obtain an inhibition curve. IC50 values were obtained by interpolating the curve using non-linear regression.

[2] = Aqueous solubility by weighing dried aliquots; assay type: physicochemical; conditions: ultrapure deionised water, room temperature, pH =7
Method: Substances were dissolved in ultrapure deionised water at room temperature up to concentrations of 50 g/L. Solutions were centrifuged and their aliquots were transferred into weighed glass vials (d = 0.01 mg). The samples were dried under reduced pressure and the vials were weighed again. The solubility was calculated from mass difference divided by sample volume.

[3] = test system: SupT1 cells; assay: Cytotoxicity from cell numbers in non-infected SupT1 cultures; assay type: cell-based; conditions: concentration at which toxicity is observed in 10-fold titration series
Method: (§1) CD4^+ T cells were harvested from normal donors and cultured in Roswell Park Memorial Institute medium (RPMI) supplemented with 2 mM L-glutamine (Life Technologies, Merelbeke, Belgium), 10% (v/v) heat-inactivated foetal calf serum (Hyclone, Thermo Fisher Scientific, Waltham, MA), 100 U/mL penicillin and 100 µg/mL streptomycin (Life Technologies), 20 ng/mL interleukin-2 (IL-2; specific activity 10 U/ng, Peprotech, London, UK), and with 1 µg/mL phytohemagglutinin (PHA) mitogen (Thermo Fisher Scientific), 72 h prior to infection, as described earlier. SupT1 cells were maintained at maximum 500,000 cells/mL, in Iscove’s Modified Dulbecco’s Medium (IMDM) supplemented with 2 mM L-glutamine (Life Technologies) and 10% (v/v) heat-inactivated foetal calf serum (Hyclone, Thermo Fisher Scientific, Waltham, MA), as described earlier.
(§2) Lyophilised compound was dissolved in dimethyl sulfoxide to a concentration of 5 mM, and further diluted in cell culture medium (SupT1: IMDM and CD4^+ T cells: RPMI). Cells were incubated 2 h prior infection in appropriate medium as described above, now also supplemented with diluted compound. Subsequently, cells (SupT1: 50,000 per 96 well, CD4^+ T cells: 250,000 per 96 well) were infected with HIV (HIV NL4–3-GFP-I, an infectious virus expressing green fluorescent protein (GFP) from gfp-IRES-nef mRNA expressed from the nef locus, as described earlier. Medium was as described above, now also supplemented with diluted compound (For CD4^+ T cells, PHA was left out). Medium was refreshed after 24 h, keeping compound and supplement concentrations constant. After 72 h, cells were harvested, measured by flow cytometry for GFP expression and counted, using a MACSQuant flow cytometer (Miltenyi Biotec, Bergisch Gladbach, Germany). Infection rate measured by GFP expression was between 6 and 20%. Cell numbers were used to measure cytotoxicity (cell numbers in non-infected cultures supplemented with compound were compared to cell numbers obtained in parallel cultures without compound added: a reduction with more than 10% was considered to indicate cytotoxicity).
First, toxicity of the compounds was determined in SupT1 cells. Since even minor toxicity affects the support of viral replication by the cell, compounds should be active well below threshold toxic concentration (i.e. concentration at which toxicity is observed in 10-fold titration series).

[4] = test system: HIV NL4-3-GFP-I in SupT1 cells; assay: Infection assay in SupT1 cells, GFP flow cytometry; assay type: cell-based, HIV-1; conditions: for Antiviral activity: SupT1 cells, at 10-fold lower concentration than threshold toxic concentration
Method: as §1, §2

[5] = ref Janssen et al.[15]; cited from earlier work
[6] = HIV-1 RT, 2 ng enzyme, at least two measurements, read-out: IC50
[7] = thermodynamic from solid, read-out: Solubility

Row | Structure (SMILES) | IC50 [1, 6] | Solubility [2, 7] | Threshold toxicity [3] | IC50 [1] | Antiviral activity [4] | Solubility [2] | IC50 ([4]; Human immunodeficiency virus 1, NL43, SUP-T1, read-out: IC50 (infection rate), reference run in parallel) | Solubility [5]
1 | N#Cc1cc(Cl)cc(Oc2cc(OCC(=O)c3ccc(OCC(=O)O)cc3)ccc2Cl)c1 [Compound 7a] | 1.23 ± 0.05 µM | 13.1 mg/mL (≈ 27.7 mM) | 5 µM | – | – | – | – | –
2 | O=C([O-])COc1ccc(C(=O)COc2ccc(Cl)c(Oc3cc(Cl)cc(Cl)c3)c2)cc1.[K+] [Compound 7b] | – | 4.3 mg/mL | 50 µM | 6.75 ± 0.5 µM | + | – | – | –
3 | N#Cc1cc(Cl)cc(Oc2cc(Cl)cc(OCC(=O)c3ccc(OCC(=O)[O-])cc3)c2)c1.[K+] [Compound 7c] | 8.3 ± 1.3 µM | – | 50 µM | – | – | >50.0 mg/mL | – | –
4 | N#Cc1cc(Cl)cc(Oc2cccc(OCC(=O)c3ccc(OCC(=O)[O-])cc3)c2)c1.[K+] [Compound 7d] | 9.78 ± 0.67 µM | – | 50 µM | – | – | >50.0 mg/mL | – | –
5 | Cc1cc(OCC(=O)[O-])ccc1C(=O)COc1ccc(Cl)c(Oc2cc(Cl)cc(C#N)c2)c1.[K+] [Compound 7f] | 4.71 ± 0.43 µM | – | >50 µM | – | + | 8.9 mg/mL | – | –
6 | Cc1cc(C(=O)COc2ccc(Cl)c(Oc3cc(Cl)cc(C#N)c3)c2)ccc1OCC(=O)[O-].[K+] [Compound 7g] | 0.65 ± 0.03 µM | – | 50 µM | – | + | 3.8 mg/mL | – | –
7 | N#Cc1cc(Cl)cc(Oc2ccc(Cl)cc2OCC(=O)c2ccc(OCC(=O)O)cc2)c1 [Compound 8a] | 23.4 ± 1.6 µM | > 50 mg/mL | 50 µM | – | – | – | – | –
8 | Cc1cc(OCC(=O)[O-])ccc1C(=O)COc1cc(Cl)ccc1Oc1cc(Cl)cc(C#N)c1.[K+] [Compound 8d] | 4.7 ± 0.7 µM | – | 50 µM | – | – | 14.4 mg/mL | – | –
9 | Cc1cc(C(=O)COc2cc(Cl)ccc2Oc2cc(Cl)cc(C#N)c2)ccc1OCC(=O)[O-].[K+] [Compound 8e] | 3.07 ± 0.22 µM | – | 50 µM | – | + | 39.9 mg/mL | – | –
10 | N#Cc1cc(Cl)cc(Oc2cc(Cl)ccc2OCC(=O)c2ccc(Oc3ccc(OCC(=O)[O-])cc3)cc2)c1.[K+] [Compound 8f] | 1.27 ± 0.05 µM | – | 5 µM | – | – | >50.0 mg/mL | – | –
11 | Cc1ccnc2c1NC(=O)c1cccnc1N2C1CC1 [NVP, nevirapine, reference compound] | – | – | 50 µM | – | + | – | 0.04 µM | –
12 | Cc1cc(/C=C/C#N)cc(C)c1Nc1ccnc(Nc2ccc(C#N)cc2)n1 [RPV, rilpivirine, reference compound] | 0.32 ± 0.04 µM | – | 0.5 µM | – | + | – | – | 0.00002 ^b g/L
